{"source": "patent US8168656B2", "about": "“Indoleacetic acid and indenacetic acid derivatives as therapeutic agents with reduced gastrointestinal toxicity” (Vanderbilt University, priority 2009, dated 2012)", "assay_in_all_cases": "Steady-state quenching of COX intrinsic fluorescence (apo-protein)", "format_in_all_cases": "binding, murine", "key": {"wild type mCOX-2": {"biological_target": "T1, wild type mCOX-2 (Mus musculus, UniProt Q05769)", "T1 construct": "made in house; host or cells: Sf9 insect cells (baculovirus, pVL1393)", "T1 sequence (Q05769 18-604)": "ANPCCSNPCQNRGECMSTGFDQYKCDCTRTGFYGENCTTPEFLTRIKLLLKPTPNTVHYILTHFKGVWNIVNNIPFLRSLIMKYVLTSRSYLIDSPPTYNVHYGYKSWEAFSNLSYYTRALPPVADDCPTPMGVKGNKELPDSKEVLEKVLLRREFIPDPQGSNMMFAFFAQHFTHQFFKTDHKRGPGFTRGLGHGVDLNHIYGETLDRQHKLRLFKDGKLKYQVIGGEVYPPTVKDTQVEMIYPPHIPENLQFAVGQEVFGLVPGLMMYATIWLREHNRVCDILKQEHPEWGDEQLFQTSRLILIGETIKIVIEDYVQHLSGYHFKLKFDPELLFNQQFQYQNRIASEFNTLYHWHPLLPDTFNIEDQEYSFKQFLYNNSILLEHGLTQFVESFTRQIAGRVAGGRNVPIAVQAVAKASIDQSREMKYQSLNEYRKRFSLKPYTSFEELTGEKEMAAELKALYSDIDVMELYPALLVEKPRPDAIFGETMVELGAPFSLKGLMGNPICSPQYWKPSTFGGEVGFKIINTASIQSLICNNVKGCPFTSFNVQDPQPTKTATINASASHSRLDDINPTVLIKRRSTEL", "procedure": "(§1) Steady-state measurements were performed at 37° C. in a 3.5 ml fluorescence cuvette with continuous stirring. […] Data were collected over 240 or 360 seconds with 2-second integration times. The reversibility of quenching was analyzed in the same manner, with subsequent addition of 50 μM AA as competitor. The ligands were dissolved in DMSO before further dilution into buffer. The organic component in the buffer was below 0.4%.\n(§2) This assay provided a method to directly monitor the binding of INDO and DM-INDO to COXs. Various concentrations of INDO and DM-INDO were added to apo-proteins and the rate of fluorescence decrease was monitored over time. After the mixture reached equilibrium, 50 μM of AA was added as competitor to monitor the reversibility of binding. The kinetic data for quenching were analyzed in the same manner as those for inhibition. For clarity, the equilibrium constant for the first step of fluorescence quenching is referred to as Kd, and k2 and k−2 from the second step of quenching are represented by k′2 and k′−2, respectively."}, "mCOX-2^V349L": {"biological_target": "T2, mCOX-2^V349L (Mus musculus, UniProt Q05769, V335L)", "T2 construct": "made in house; host or cells: Sf9 insect cells (baculovirus, pVL1393)", "T2 sequence (Q05769 18-604 V335L)": "T1 sequence (Q05769 18-604) with V318L", "procedure": "as §1, §2"}, "mCOX-2^V349I": {"biological_target": "T3, mCOX-2^V349I (Mus musculus, UniProt Q05769, V335I)", "T3 construct": "made in house; host or cells: Sf9 insect cells (baculovirus, pVL1393)", "T3 sequence (Q05769 18-604 V335I)": "T1 sequence (Q05769 18-604) with V318I", "procedure": "as §1, §2"}, "[1]": {"conditions": "fluorescence increase from competition with 50 μM AA"}}, "note": "Changes are numbered by the printed parent chain."}
{"smiles": "COc1ccc2c(c1)c(CC(=O)O)cn2C(=O)c1ccc(Cl)cc1", "note": "[DM-INDO, 2-Des-methylindomethacin]", "values": [{"measurement": "k′−2^b", "setting": "wild type mCOX-2; [1]", "value": "0.007 ± 0.001", "unit": "s⁻¹"}, {"measurement": "Kd", "setting": "wild type mCOX-2; fluorescence quenching", "value": "16 ± 9", "unit": "µM"}, {"measurement": "k′2", "setting": "wild type mCOX-2; fluorescence quenching", "value": "0.16 ± 0.04", "unit": "s⁻¹"}, {"measurement": "k′−2", "setting": "wild type mCOX-2; fluorescence quenching (decay)", "value": "0.006 ± 0.002", "unit": "s⁻¹"}, {"measurement": "k′−2^b", "setting": "mCOX-2^V349L; [1]", "value": "0.006 ± 0.001", "unit": "s⁻¹"}, {"measurement": "Kd", "setting": "mCOX-2^V349L; fluorescence quenching", "value": "34 ± 19", "unit": "µM"}, {"measurement": "k′2", "setting": "mCOX-2^V349L; fluorescence quenching", "value": "0.05 ± 0.01", "unit": "s⁻¹"}, {"measurement": "k′−2", "setting": "mCOX-2^V349L; fluorescence quenching (decay)", "value": "0.003 ± 0.002", "unit": "s⁻¹"}, {"measurement": "k′−2^b", "setting": "mCOX-2^V349I; [1]", "value": "0.005 ± 0.001", "unit": "s⁻¹"}, {"measurement": "Kd", "setting": "mCOX-2^V349I; fluorescence quenching", "value": "12 ± 5", "unit": "µM"}, {"measurement": "k′2", "setting": "mCOX-2^V349I; fluorescence quenching", "value": "0.09 ± 0.01", "unit": "s⁻¹"}, {"measurement": "k′−2", "setting": "mCOX-2^V349I; fluorescence quenching (decay)", "value": "0.003 ± 0.002", "unit": "s⁻¹"}]}
